Assay results published in paper PMC8238920, “Functional inhibition of lactate dehydrogenase suppresses pancreatic adenocarcinoma progression” (Clinical and Translational Medicine, 2021).

Target: T1, lactate dehydrogenase A (LDHA) (Homo sapiens, UniProt P00338)
T1 construct: his-tag LDHA human recombinant protein (Cat. No. 71081, BPS Bioscience)
Assay: SPR (Biacore T200, LDHA immobilized on CM5 chip, berberine […])
Type: binding

**Q.** For `COc1ccc2cc3[n+](cc2c1OC)CCc1cc2c(cc1-3)OCO2` [BBR, berberine], which Kd is on record?
**A.** 4.59 µM
